How the values were obtained:
[1] = tested on: allogeneic reactive T cells; assay: Allogeneic reactive T cell proliferation, mixed lymphocyte reaction ([3H]-thymidine uptake); assay type: cell-based, mouse (Balb/c, C57BL/6); conditions: metformin 1000 uM, rapamycin 1 nM or 100 nM; 3 days
Description: CD4+ T cells (2×10^5 cells/well) from normal donors (Balb/c, responder) and splenocytes (2×10^5 cells/well) with T cells removed, which were derived from irradiated recipients (syngeneic) or donors (C57BL/ 6, stimulator, allogeneic), were added to each well of a 96-well plate, followed by mixed incubation. Here, for the allogeneic reaction, the cells were treated with metformin (1000 uM) and rapamycin (1 nM or 100 nM) according to experimental conditions, followed by incubation for 3 days. On the last day of the incubation, [^3H]-thymidine was added, followed by additional incubation for 18 hours, and the [^3H]-thymidine uptake of cells was measured by the Liquid Scintillation Counter (Beckman, USA), and expressed as cpm. Statistical assay was conducted by using Graph prism (t-test, ANOVA), and values of p<0.05 were considered statistically significant.

[2] = tested on: Splenocytes obtained from normal C57BL/6 mice; assay: MTT non-specific cytotoxicity in T cell activation conditions; assay type: cell-based; conditions: metformin 1000 μM, rapamycin 100 nM; 3 days; anti-CD3 0.5 μg/ml
Description: (§1) Splenocytes obtained from normal C57BL/6 mice were added at 2×10^5 cells in the 96-well plate, and treated with metformin (1000 μM) or rapamycin (100 nM) according to experimental conditions, followed by incubation for 3 days, under anti-CD3 activation conditions (0.5 μg/ml). For MTT analysis, 3-(4,5-dimethyl-thiazol-2-yl)-2,5-diphenyltetrazolium bromide was added 4 hours before cell harvest, followed by incubation for 4 hours, and then each well was treated with DMSO, and the absorbance was measured at the wavelength of 540 nm.

Treg cells = assay: Treg cell activity in splenocytes under anti-CD3 activation (flow cytometry); assay type: cell-based, C57BL/6 mice; conditions: metformin 1000 μM, rapamycin 100 nM; 3 days; anti-CD3 0.5 μg/ml
Description: Splenocytes obtained from normal C57BL/6 mice were added at 1×10^6 cells in the 24-well plate, and treated with metformin (1000 μM) or rapamycin (100 nM) according to experimental conditions, followed by incubation for 3 days, under anti-CD3 activation conditions (0.5 μg/ml). For flow cytometry, the cells were treated with anti-CD4-percp antibody and anti-CD25-APC antibody, followed by incubation at 4[…] for 30 minutes, and then the cells were subjected to permeabilization, and then reacted with anti-Foxp3-PE. For analysis of Treg activity, the cells expressing the CD4+CD25+Foxp3+ marker were gated and analyzed. The results were expressed by a bar graph showing the proportion of Foxp3+CD25+ cells occupying in the cultured all CD4+ cells.

IFN-γ = IFN-γ secretion by allogeneic reactive T cells in mixed lymphocyte reaction (ELISA); assay type: cell-based, mouse (Balb/c, C57BL/6); conditions: metformin 1000 μM, rapamycin 1 nM or 100 nM; 3 days
IL-17 = IL-17 secretion by splenocytes in T cell activation conditions (ELISA); assay type: cell-based, C57BL/6 mice; conditions: metformin 1000 uM, rapamycin 100 nM; 3 days; anti-CD3 0.5 μg/ml; vs Nil
Description: as §1
The cells were treated with metformin (1000 uM) or rapamycin (100 nM) according to experimental conditions, followed by incubation for 3 days, and then the amount of IL-17 present in the culture liquid was measured by ELISA.

[3] = tested on: LPS-stimulated splenocytes; assay: Immunoglobulin (IgG) in culture liquid of LPS-stimulated splenocytes (ELISA); assay type: cell-based, mouse; conditions: LPS 100 ng/ml; metformin 1000 uM, rapamycin 100 nM
Description: Splenocytes obtained from normal C57BL/6 mice were added into a 24-well plate (1×10^6 cells/well), and stimulated by LPS (100 ng/ml), and then treated with metformin (1000 uM) or rapamycin (100 nM) according to experimental conditions, followed by incubation for 3 days. […] Statistical analysis was conducted by using Graph prism (t-test, ANOVA), and values of p<0.05 were considered statistically significant.
Thereafter, the level of IgG present in the culture liquid was measured by ELISA.

[4] = tested on: LPS-stimulated splenocytes; assay: Inflammatory cytokines secreted in LPS-stimulated splenocytes (ELISA); assay type: cell-based, C57BL/6 mice; conditions: LPS 100 ng/ml; metformin 1000 uM, rapamycin 100 nM; 3 days
Description: Splenocytes obtained from normal C57BL/6 mice were added into a 24-well plate (1×10^6 cells/well), and stimulated by LPS (100 ng/ml), and then treated with metformin (1000 uM) or rapamycin (100 nM) according to experimental conditions, followed by incubation for 3 days. […] Statistical analysis was conducted by using Graph prism (t-test, ANOVA), and values of p<0.05 were considered statistically significant.

[5] = tested on: Synovial cells isolated from patients with rheumatoid arthritis (RA); assay: Measurement of mitochondrial respiration (oxygen consumption rate); assay type: cell-based, human; conditions: rapamycin 100 nM
Description: The present inventors examined the effect of metformin on rapamycin-induced mitochondrial respiration deterioration. The cells were treated with rapamycin (100 nM) alone or co-treated with rapamycin (100 nM) and metformin (1 mM), and then the mitochondrial respiratory rate was examined through the measurement of the oxygen consumption rate. Oligomycin and FCCP treatment conditions were the same.

Sprague-Dawley rats = assay: Rapamycin-induced diabetic symptoms and metformin co-administration in rats (body weight, urine volume, IPGTT, ITT); assay type: in vivo, rat
Description: As experimental animals, Sprague-Dawley rats with 200-220 grams were used. The animals were fed with a 0.05% low-salt diet, and the experiment was conducted for a total of 6 weeks while drugs were administered according to experimental conditions (FIG. 5). […] Rapamycin dissolved in olive oil was subcutaneously injected into the rapamycin administered alone group (Rapamycin) and the co-administered group (Rapa+Met) at a dose of 0.3 mg/kg of body weight every day for six weeks. Metformin was orally administered at a dose of 250 mg/kg of body weight every day for 2.5 weeks from the 3.5 weeks of rapamycin administration. Distilled water (DW, 3 mL/kg) instead of metformin was orally administered into the rapamycin administered alone group and the control group. The body weight and 24-hr urine volume of the control and experimental groups were measured six weeks after the start of the experiment FIGS. 6A and 6B. The urine volume was measured in the metabolic cage. The animals of each group were tested for the intraperitoneal glucose tolerance test (IPGTT) and the insulin tolerance test (ITT), and the change in blood glucose level over time was observed FIGS. 7A, 7B, 8A and 8B). The intraperitoneal glucose tolerance test (IPGTT) was performed by intraperitoneal administration of 1.5 g/kg of body weight of glucose after fasting. The insulin resistance test was carried out such that the blood glucose level was measured at 30-min intervals after subcutaneous injection of insulin at 0.8 U/kg of body weight following 5-hr fasting. The quantitative index (area under the curve of glucose, AUCg) was derived using a graph of blood glucose level change per hour, and was expressed as a bar graph. Data were expressed as mean value±standard deviation, and statistical significance was determined by student's t-test.

[6] = tested on: collagen-induced arthritis mouse models; assay: Glucose tolerance test and insulin tolerance test in arthritis animal models; assay type: in vivo; conditions: arthritis mice after 12 weeks, rapamycin 1 mg/kg
Description: The intraperitoneal glucose tolerance test was performed by intraperitoneal injection of glucose at 1 g/kg of body weight after fasting for 12 hours. The insulin tolerance test was performed at 30 minutes interval after the subcutaneous injection of […] at 1 U/kg of body weight.

NIH3T3 cells [7] = assay: Analysis of mitochondrial content (MitoTracker staining); assay type: cell-based; conditions: 72-hr incubation; rapamycin 1 nM, metformin 200 uM or 1 mM
Description: The mitochondria were observed by fluorescent microscopy for each experimental condition. Specifically, the MitoTracker was diluted in DMEM medium to a concentration of 100 nM, and then added on the NIH3T3 plate, followed by incubation at 37° C. for 15 minutes and washing with PBS. Thereafter, for α-tubulin staining, the cells were fixed with acetone and methanol (1:1) for 15 minutes, and then washed with PBS for 15 minutes.

NIH3T3 cells [8] = assay: Analysis of mitochondrial membrane potential (JC-1 staining); assay type: cell-based; conditions: 72-hr incubation; rapamycin 1 nM, metformin 200 uM or 1 mM
Description: For JC-1 staining, the cells were incubated in JC-1, which had been diluted in DMEM to a final concentration of 100 nM, at 37 °C for 15 minutes, and then the exchange into new DMEM medium was conducted, followed by observation by fluorescent microscopy.

[9] = rapamycin 0.3 mg/kg s.c. daily 6 weeks, metformin 250 mg/kg oral daily from 3.5 weeks, vs control group (VH)

## CN(C)C(=N)NC(=N)N [metformin]
[1]
  allogeneic reactive T cell proliferation ([3H]-thymidine uptake, cpm): reduced the cpm values
[2]
  non-specific cytotoxicity (MTT): no non-specific cytotoxicity
Treg cells
  Treg activity (proportion of Foxp3+CD25+ cells in CD4+ cells): increased
IFN-γ
  secretion of IFN-γ: reduced
IL-17
  amount of IL-17 present in the culture liquid: reduced
[3]
  concentration of immunoglobulin (IgG) present in the culture liquid: reduced
[4]
  concentration of IL-6 present in the culture liquid: reduced
  concentration of TNF-α present in the culture liquid: reduced

## CO[C@H]1C[C@@H]2CC[C@@H](C)[C@@](O)(O2)C(=O)C(=O)N2CCCC[C@H]2C(=O)O[C@H]([C@H](C)C[C@@H]2CC[C@@H](O)[C@H](OC)C2)CC(=O)[C@H](C)/C=C(\C)[C@@H](O)[C@@H](OC)C(=O)[C@H](C)C[C@H](C)/C=C/C=C/C=C/1C [rapamycin]
[1]
  allogeneic reactive T cell proliferation ([3H]-thymidine uptake, cpm): reduced the cpm values
[2]
  non-specific cytotoxicity (MTT): no non-specific cytotoxicity
[5]; FCCP 3 uM, metformin 1 mM
  increase in mitochondrial respiratory rate by FCCP: remarkably low
[5]; before the treatment with oligomycin, vs control group
  mitochondrial respiration capacity (oxygen consumption rate): reduced respiration capacity compared with the control group
Sprague-Dawley rats; glucose 1.5 g/kg i.p. after fasting, rapamycin 0.3 mg/kg, metformin 250 mg/kg
  blood glucose level in intraperitoneal glucose tolerance test (IPGTT): highest blood glucose level among the three groups
Sprague-Dawley rats; insulin 0.8 U/kg s.c. after 5-hr fasting, rapamycin 0.3 mg/kg, metformin 250 mg/kg
  blood glucose level in insulin tolerance test (ITT): highest blood glucose level among the three groups
Sprague-Dawley rats; [9]
  24-hr urine volume: significantly increased
  body weight: significant reductions
Treg cells
  Treg activity (proportion of Foxp3+CD25+ cells in CD4+ cells): increased
IFN-γ
  secretion of IFN-γ: reduced
IL-17
  amount of IL-17 present in the culture liquid: reduced
[6]; glucose 1 g/kg i.p. after 12 h fasting, metformin 50 mg/kg
  blood glucose level in intraperitoneal glucose tolerance test: the highest
[6]
  glucose level in insulin tolerance test, start point of measurement: the highest
[6]; metformin 50 mg/kg, vs control group (Vehicle)
  blood glucose level in insulin tolerance test, after the start point: maintained at similar levels
NIH3T3 cells [7]
  mitochondrial content (MitoTracker): reduced
[3]
  concentration of immunoglobulin (IgG) present in the culture liquid: reduced
NIH3T3 cells [8]
  mitochondrial membrane potential (JC-1 staining): not normally maintained
[4]
  concentration of IL-6 present in the culture liquid: reduced
  concentration of TNF-α present in the culture liquid: reduced
